Columns and labels:
[1] = system: common (oilseed) sunflower; test: Test C pre-/postemergence test; assay type: in vivo, Helianthus annuus; details: for Sunflower plant response rating: preemergence, scale 0 (no effect) to 100 (complete control)
Outline: (§1)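 Test chemicals were formulated with surfactant in a non-phytotoxic solvent and sprayed both on freshly planted seeds (preemergence) and on 1- to 4-leaf plants of 2–18 cm (postemergence). Flooded-paddy pots received compound directly into 3 cm of standing water, maintained for the test.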

[2] = system: morningglory; test: Test C pre-/postemergence test; assay type: in vivo, Ipomoea coccinea; details: for Plant response rating, Morningglory: scale 0 to 100, 0 no effect, 100 complete control
Outline: as §1

[3] = system: johnsongrass; test: Test C pre-/postemergence test; assay type: in vivo, Sorghum halepense; details: for Plant response rating, Johnsongrass: scale 0 to 100, 0 no effect, 100 complete control
Outline: as §1

[4] = system: giant foxtail; test: Test C pre-/postemergence test; assay type: in vivo, Setaria faberii; details: for Plant response rating, Foxtail, Giant: scale 0 to 100, 0 no effect, 100 complete control
Outline: as §1

[5] = system: pigweed; test: Test C pre-/postemergence test; assay type: in vivo, Amaranthus retroflexus; details: for Plant response rating, Pigweed: scale 0 to 100, 0 no effect, 100 complete control
Outline: as §1

[6] = system: wheat; test: Test A pre-/postemergence greenhouse test; assay type: in vivo, Triticum aestivum; details: for Wheat plant response rating: 0 to 100 scale
Outline: (§2)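 Untreated controls served as the reference for visual injury ratings taken about ten days after spraying. The non-phytotoxic solvent/surfactant formulation was applied preemergence to seeded loam and sand and postemergence to plants two to ten cm high.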

[7] = system: Surinam grass; test: Test C pre-/postemergence test; assay type: in vivo, Brachiaria decumbens; details: for Surinam Grass plant response rating: preemergence, scale 0 (no effect) to 100 (complete control); for Plant response rating, Surinam Grass: scale 0 to 100, 0 no effect, 100 complete control
Outline: as §1

[8] = system: corn; test: Test A pre-/postemergence greenhouse test; assay type: in vivo, Zea mays; details: for Corn plant response rating: 0 to 100 scale
Outline: as §2

[9] = system: corn; test: Test C pre-/postemergence test; assay type: in vivo, Zea mays; details: for Plant response rating, Corn: scale 0 to 100, 0 no effect, 100 complete control
Outline: as §1

[10] = system: barnyardgrass; test: Test A pre-/postemergence greenhouse test; assay type: in vivo, Echinochloa crus-galli; details: for Barnyardgrass plant response rating: 0 to 100 scale
Outline: as §2

[11] = system: eastern black nightshade; test: Test C pre-/postemergence test; assay type: in vivo, Solanum ptycanthum
Outline: as §1

[12] = system: crabgrass; test: Test A pre-/postemergence greenhouse test; assay type: in vivo, Digitaria sanguinalis; details: for Crabgrass, Large plant response rating: 0 to 100 scale
Outline: as §2

[13] = system: Goosegrass; test: Test C pre-/postemergence test; assay type: in vivo, Eleusin indica; details: for Plant response rating, Goosegrass: scale 0 to 100, 0 no effect, 100 complete control
Outline: as §1

[14] = system: velvetleaf; test: Test C pre-/postemergence test; assay type: in vivo, Abutilon theophrasti; details: for Plant response rating, Velvetleaf: scale 0 to 100, 0 no effect, 100 complete control
Outline: as §1

[15] = system: Italian ryegrass; test: Test C pre-/postemergence test; assay type: in vivo, Lolium multiflorum; details: Postemergence; for Plant response rating, Ryegrass, Italian: scale 0 to 100, 0 no effect, 100 complete control
Outline: as §1

[16] = system: crabgrass; test: Test C pre-/postemergence test; assay type: in vivo, Digitaria sanguinalis; details: for Plant response rating, Crabgrass, Large: scale 0 to 100, 0 no effect, 100 complete control
Outline: as §1

[17] = 31 g ai/ha, Preemergence, scale 0 to 100
[18] = 62 g ai/ha, preemergence, scale 0 (no effect) to 100 (complete control)
[19] = preemergence, 125 g ai/ha, scale 0 (no effect) to 100 (complete control)
[20] = Postemergence, 125 g ai/ha, 0 is no effect, 100 is complete control
[21] = Postemergence, 500 g ai/ha, 0 is no effect, 100 is complete control
[22] = Preemergence, 125 g ai/ha, 0 no effect, 100 complete control
[23] = Preemergence, 500 g ai/ha, 0 to 100 scale where 0 is no effect and 100 is complete control

Cn1nc(C(F)(F)F)c(C[S+]([O-])c2ccc(Cl)c[n+]2[O-])c1OC(F)F (centres unmarked) [Compound 6]
30: Plant response rating, Johnsongrass ([3]; Postemergence, 125 g ai/ha) | Plant response rating, Foxtail, Giant ([4]; Postemergence, 62 g ai/ha) | Wheat plant response rating [6, 20] | Plant response rating, Surinam Grass ([7]; Postemergence, 125 g ai/ha) | Plant response rating, Surinam Grass ([7]; Postemergence, 250 g ai/ha) | Plant response rating, Velvetleaf ([14]; Postemergence, 125 g ai/ha)
85: Plant response rating, Ryegrass, Italian ([15]; 125 g ai/ha)
65: Johnsongrass plant response rating [3, 17]
90: Wheat plant response rating [6, 22] | Plant response rating, Wheat [6, 23] | Plant response rating, Corn [8, 23] | Barnyardgrass plant response rating [10, 21] | Crabgrass, Large plant response rating [12, 21] | Plant response rating, Ryegrass, Italian ([15]; 250 g ai/ha)
45: Plant response rating, Goosegrass ([13]; Postemergence, 250 g ai/ha) | Plant response rating, Crabgrass, Large ([16]; Postemergence, 250 g ai/ha)
0: Sunflower plant response rating ([1]; 62 g ai/ha) | Morningglory plant response rating [2, 17] | Morningglory plant response rating [2, 18] | Plant response rating (0 to 100), Johnsongrass ([3]; Postemergence, 31 g ai/ha) | Plant response rating, Johnsongrass ([3]; Postemergence, 62 g ai/ha) | Plant response rating (0 to 100), Foxtail, Giant ([4]; Postemergence, 31 g ai/ha) | Plant response rating (0 to 100), Pigweed ([5]; Postemergence, 31 g ai/ha) | Plant response rating (0 to 100), Pigweed ([5]; Postemergence, 62 g ai/ha) | Plant response rating, Pigweed ([5]; Postemergence, 125 g ai/ha) | Plant response rating, Pigweed ([5]; Postemergence, 250 g ai/ha) | Plant response rating (0 to 100), Surinam Grass ([7]; Postemergence, 31 g ai/ha) | Plant response rating (0 to 100), Surinam Grass ([7]; Postemergence, 62 g ai/ha) | Corn plant response rating [9, 17] | Plant response rating (0 to 100), Corn ([9]; Postemergence, 31 g ai/ha) | Plant response rating, Corn ([9]; Postemergence, 62 g ai/ha) | Plant response rating, Corn ([9]; Postemergence, 125 g ai/ha) | Plant response rating, Corn ([9]; Postemergence, 250 g ai/ha) | Plant response rating (0 to 100), Goosegrass ([13]; Postemergence, 31 g ai/ha) | Plant response rating, Goosegrass ([13]; Postemergence, 62 g ai/ha) | Velvetleaf plant response rating [14, 18] | Plant response rating (0 to 100), Velvetleaf ([14]; Postemergence, 31 g ai/ha) | Plant response rating (0 to 100), Ryegrass, Italian ([15]; 31 g ai/ha)
35: Plant response rating, Johnsongrass ([3]; Postemergence, 250 g ai/ha)
70: Plant response rating (0 to 100), Morningglory ([2]; Preemergence, 250 g ai/ha) | Plant response rating, Foxtail, Giant ([4]; Postemergence, 250 g ai/ha) | Wheat plant response rating [6, 21] | Crabgrass, Large plant response rating [12, 20]
50: Plant response rating, Morningglory ([2]; Postemergence, 62 g ai/ha) | Plant response rating, Morningglory ([2]; Postemergence, 125 g ai/ha) | Plant response rating, Morningglory ([2]; Postemergence, 250 g ai/ha) | Foxtail, Giant plant response rating [4, 17] | Plant response rating, Velvetleaf ([14]; Postemergence, 250 g ai/ha) | Plant response rating (0 to 100), Ryegrass, Italian ([15]; 62 g ai/ha)
80: Corn plant response rating [8, 21] | Corn plant response rating [8, 22] | Barnyardgrass plant response rating [10, 20]
98: Johnsongrass plant response rating [3, 18] | Johnsongrass plant response rating [3, 19] | Foxtail, Giant plant response rating [4, 19] | Surinam Grass plant response rating ([7]; 62 g ai/ha) | Plant response rating (0 to 100), Corn ([9]; Preemergence, 250 g ai/ha) | Nightshade plant response rating [11, 18] | Goosegrass plant response rating [13, 17] | Crabgrass, Large plant response rating [16, 17]
10: Plant response rating (0 to 100), Sunflower ([1]; Preemergence, 250 g ai/ha) | Plant response rating (0 to 100), Morningglory ([2]; Postemergence, 31 g ai/ha) | Morningglory plant response rating [2, 19] | Plant response rating (0 to 100), Velvetleaf ([14]; Postemergence, 62 g ai/ha) | Plant response rating, Crabgrass, Large ([16]; Postemergence, 62 g ai/ha)
60: Plant response rating, Foxtail, Giant ([4]; Postemergence, 125 g ai/ha) | Corn plant response rating [8, 20] | Corn plant response rating [9, 18] | Corn plant response rating [9, 19]
95: Foxtail, Giant plant response rating [4, 18]
40: Plant response rating (0 to 100), Velvetleaf ([14]; Preemergence, 250 g ai/ha) | Plant response rating, Crabgrass, Large ([16]; Postemergence, 125 g ai/ha)
100: Plant response rating (0 to 100), Johnsongrass ([3]; Preemergence, 250 g ai/ha) | Plant response rating (0 to 100), Foxtail, Giant ([4]; Preemergence, 250 g ai/ha) | Pigweed plant response rating [5, 18] | Plant response rating (0 to 100), Pigweed ([5]; Preemergence, 250 g ai/ha) | Plant response rating (0 to 100), Surinam Grass ([7]; Preemergence, 250 g ai/ha) | Surinam Grass plant response rating ([7]; 125 g ai/ha) | Barnyardgrass plant response rating [10, 22] | Plant response rating, Barnyardgrass [10, 23] | Plant response rating (0 to 100), Nightshade ([11]; Preemergence, 250 g ai/ha) | Crabgrass, Large plant response rating [12, 22] | Plant response rating, Crabgrass, Large [12, 23] | Goosegrass plant response rating [13, 18] | Plant response rating (0 to 100), Goosegrass ([13]; Preemergence, 250 g ai/ha) | Goosegrass plant response rating [13, 19] | Crabgrass, Large plant response rating [16, 18] | Plant response rating (0 to 100), Crabgrass, Large ([16]; Preemergence, 250 g ai/ha) | Crabgrass, Large plant response rating [16, 19]
20: Plant response rating, Goosegrass ([13]; Postemergence, 125 g ai/ha)
5: Sunflower plant response rating ([1]; 125 g ai/ha) | Plant response rating (0 to 100), Crabgrass, Large ([16]; Postemergence, 31 g ai/ha)
